Data set [1] addresses RNA polymerase III (Homo sapiens, UniProt O14802+Q9NW08). To be noted: cited from earlier work.
In data set [2] the target is RNA polymerase I (Homo sapiens, UniProt O95602+Q9H9Y6). Particulars: cited from earlier work.
Data set [3] relates to JIMT-1 cells. The experiment in a line: Cell viability assay (BrdU incorporation), JIMT-1. It is filed as cell-based. To be noted: conjugated to Trastuzumab D265C. As to the method: (§1) Cytotoxic activity of anti PSMA and anti-Her2 amatoxin conjugates was evaluated in vitro with target-positive tumor cell lines and the chemiluminescent BrdU incorporation assay (Roche Diagnostics). Cell viability was determined after 96 h incubation with different concentrations of conjugates at 37° C. and 5% CO2 by measurement of fixed and permeabilized cells with an anti-BrdU-HRP antibody in a BMG Labtech Optima microplate reader. EC50 value of dose-response curve was calculated by Graphpad Prism 4.0 software.
JIMT-1 is a solid cancer cell line derived from a breast ductal adenocarcinoma.
For orientation: Dividing cells build labelled thymidine or BrdU into new DNA.

Data set [4] concerns LNCaP cells. Kind of data set: Cell viability assay (BrdU incorporation), LNCaP. It is filed as cell-based. To be noted: conjugated to anti-PSMA antibody h3/F11 D265C. On the procedure: as §1
LNCaP is a solid prostate adenocarcinoma cell line derived from a left supraclavicular lymph node metastasis.

In data set [5] the test system is Raji cells. The experiment in a line: CellTiter-Glo 2.0 cell viability assay, Raji. It is filed as cell-based, human. To be noted: conjugated to antiCD19 antibody chiBCE19 D265C. On the procedure:
Cytotoxic activity of anti CD19 amatoxin conjugates on target positive cells was assessed by CellTiter-Glo 2.0 Luminescent Cell Viability Assay (Promega, Madison, WI) in 96-well tissue culture plates. Cell viability was determined after 96 h incubation with different concentrations of conjugates at 37° C. and 5% CO2. Data analysis was performed with GraphPad Prism 7 (GraphPad Software, Inc, La Jolla, CA) software to plot curve fits and perform statistical analyses. Nonlinear variable slope curve-fits were plotted as log[ADC] vs. Response and EC50 values were generated.
Raji is a cell line derived from Burkitt's lymphoma.
(In general: In ATP-based viability assays light output follows the ATP content of the culture.)

Data set [6] relates to Jimt-1 breast cancer cells (s.c. xenograft). Kind of data set: Jimt-1 xenograft model, tumor volume. It is filed as in vivo, NMRI nude mice. Particulars: conjugated to Trastuzumab D265C; JIMT xenografts; single intravenous dose. On the procedure: Jimt-1 xenograft model: Female NMRI nude mice were inoculated with 5×10^6 Jimt-1 breast cancer cells per mouse subcutaneously in the right flank. At a mean tumor vol. of ˜120 mm^3, animals were allocated to groups on day 0. On the same day the animals received a single intravenous dose of amanitin based anti-Her2 antibody drug conjugates (ADCs) Tumor volume and body weight were determined twice per week.
(§2) Tumor growth was monitored by caliper measurement. Tumor size was calculated according to the equation: volume=W^2×L×0.5 (L=length and W=perpendicular width of the tumor, L>W).

Data set [7] concerns LNCap prostate carcinoma cells (s.c. xenograft). The experiment in a line: LnCap xenograft model, tumor volume. To be noted: conjugated to anti-PSMA antibody h3/F11 D265C; LnCap xenografts; single intravenous dose. It is filed as in vivo, CB17 SCID mice. On the procedure: LnCap xenograft model: Male CB17 SCID mice were inoculated with 2.5×10^6 LNCap prostate carcinoma cells per mouse subcutaneously in the right flank. At a mean tumor vol. of ˜150 mm^3, animals were allocated to groups on day 0. On the same day the animals received a single intravenous dose of amanitin based anti-PSMA antibody drug conjugates (ADCs) Tumor volume and body weight were determined twice per week.
as §2

The subject of data set [8] is Raji Burkitt's lymphoma cells (s.c. xenograft). Kind of data set: Raji s.c. xenograft model (solid tumor), tumor volume. Particulars: for Efficacy Raji sc: anti-CD19 conjugate, grade, key not given; for tumor shrinking activity (FIG. 7): conjugated to chiBCE19 D265C, Raji cells injected s.c., single intravenous dose. It is filed as in vivo, CB17 SCID mice. On the procedure:
Raji xenograft model: Female CB17 SCID mice were inoculated with 2.5×10^6 Raji Burkitt's lymphoma cells per mouse subcutaneously in the right flank. At a mean tumor vol. of ˜80 mm^3, animals were allocated to groups on day 0. On the same day the animals received a single intravenous dose of amanitin based anti-CD19 antibody drug conjugates (ADCs) Tumor volume and body weight were determined twice per week.
as §2
Growth inhibition experiments were then carried out with tumor xenografts of Raji cells injected into mice s.c. This approach leads to tumors that mimic the phenotype of a solid tumor.

Data set [9] relates to Raji Luc cells (i.v. xenograft). The experiment in a line: Intravenous Raji-Luc xenograft (liquid tumor), survival. It is filed as in vivo, CB17 SCID mice. To be noted: conjugated to chiBCE19 D265C; i.v. injected Raji Luc cells; single i.v. dose. On the procedure:
(§3) […]: Female CB17 SCID mice were inoculated with 2.5×10^6 Raji Burkitt's lymphoma cells per mouse into the tail vein. Animals were allocated to groups on day 0. On day 3 after tumor cell injection, the animals received a single intravenous dose of amanitin based anti-CD19 antibody drug conjugates (ADCs). Body weight was determined twice per week. Survival was monitored daily.
(§4) […]: Female CB17 SCID mice were inoculated with 5×10^6 Nalm-6 B Cell precursor leukemia cells per mouse into the tail vein. Animals were allocated to groups on day 0. On day 3 after tumor cell injection, the animals received a single intravenous dose of amanitin based anti-CD19 antibody drug conjugates (ADCs). Body weight was determined twice per week. Survival was monitored daily.
(§5) Survival rates were then investigated with tumor xenografts of Raji cells (with or without transfected luciferase) or Nalm-6 cells obtained by i.v. administration of the respective cells.
(§6) Raji is a cell line derived from Burkitt's lymphoma, Nalm-6 is a cell line derived from acute lymphoblastic leukemia (ALL). Results are shown in the Kaplan Meier curves of FIG. 6.
(§7) Survival experiments were carried out with i.v. injected Raji Luc (FIG. 6A) or NALM6 (FIG. 6B) cells.

Data set [10] deals with Nalm-6 cells (i.v. xenograft). Kind of data set: Intravenous Nalm-6 xenograft model (liquid tumor), survival. It is filed as in vivo, CB17 SCID mice. To be noted: conjugated to chiBCE19 D265C; i.v. injected NALM6 cells; single i.v. dose. On the procedure:
as §3, §4, §5, §6, §7

The nature of data set [11]: Highest non-severely toxic dose, DIG (Digoxigenin antibody) conjugates, Cyno. Particulars: Digoxigenin antibody conjugate (no cross reaction with host targets); Cynomolgus monkey.

Some results are limits rather than exact numbers.

α-amanitin [Alpha-amanitin]: the “binding to RNA polymerase III” value in data set [1] is given as “only slightly binds”. The “binding to RNA polymerase I” value in [2] is reported as “no binding”.

Consider `CC[C@H](C)[C@@H]1NC(=O)CNC(=O)[C@@H]2Cc3c([nH]c4cc(OCc5ccc(NC(=O)[C@H](C)NC(=O)[C@@H](NC(=O)CCN6C(=O)C=CC6=O)C(C)C)cc5)ccc34)[S@+]([O-])CC(NC(=O)CNC1=O)C(=O)N[C@@H](CC(N)=O)C(=O)CN1CC(O)C[C@H]1C(=O)N[C@@H]([C@@H](C)[C@@H](O)CO)C(=O)N2` (stereo partly shown) [30.1699], for which the “potency in cell viability assay (FIG. 1)” value in data set [3] was “comparable potency”. The “potency in cell viability assay (FIG. 3)” value in data set [4] is “comparable potency”. Further, in data set [5], the “potency in cell viability assay (FIG. 5)” value was “comparable potency”. Also, the “tumor shrinking activity (FIG. 2)” value in data set [6] is “strong tumor shrinking activity”. Also, in data set [7], the “tumor shrinking activity (FIG. 4)” value was “strong tumor shrinking activity”. Also, in [8], the “Efficacy Raji sc” value is “∘” and the “tumor shrinking activity (FIG. 7)” value is “strong tumor shrinking activity”. Further, the “potency in survival experiment (FIG. 6A)” value in data set [9] is given as “lower potency than the Trp variant 30.2115”. The “potency in survival experiment (FIG. 6B)” value in data set [10] is listed as “lower potency than the Trp variant 30.2115”. Besides, the “HNSTD DIG Cyno” value in [11] is more than 3 mg/kg.

`CC[C@H](C)[C@@H]1NC(=O)CNC(=O)[C@@H]2Cc3c([nH]c4cc(O)ccc34)[S@+]([O-])CC(NC(=O)CNC1=O)C(=O)N[C@@H](CC(=O)NCc1ccc(NC(=O)[C@H](C)NC(=O)C(NC(=O)CCN3C(=O)C=CC3=O)C(C)C)cc1)C(=O)CN1CC(O)C[C@H]1C(=O)N[C@@H]([C@@H](C)[C@@H](O)CO)C(=O)N2` (stereo partly shown) [30.2060]: the “potency in cell viability assay (FIG. 1)” value in data set [3] is “comparable potency”. Further, in data set [4], the “potency in cell viability assay (FIG. 3)” value is on record as “comparable potency”. Further, the “potency in cell viability assay (FIG. 5)” value in data set [5] is listed as “comparable potency”. Besides, the “tumor shrinking activity (FIG. 2)” value in data set [6] was “strong tumor shrinking activity”. Moreover, the “tumor shrinking activity (FIG. 4)” value in data set [7] is recorded as “strong tumor shrinking activity”. Also, in [8], the “Efficacy Raji sc” value is given as “∘” and the “tumor shrinking activity (FIG. 7)” value is listed as “strong tumor shrinking activity”. In addition, in [11], the “HNSTD DIG Cyno” value is on record as less than 7.5 mg/kg.

As for `CC[C@H](C)[C@@H]1NC(=O)CNC(=O)[C@@H]2Cc3c([nH]c4ccccc34)[S+]([O-])CC(NC(=O)CNC1=O)C(=O)N[C@@H](CC(=O)NCc1ccc(NC(=O)[C@H](C)NC(=O)[C@@H](NC(=O)CCN3C(=O)C=CC3=O)C(C)C)cc1)C(=O)CN1CC(O)C[C@H]1C(=O)N[C@@H]([C@@H](C)[C@@H](O)CO)C(=O)N2` (stereo partly shown) [30.2183, reference compound], the “potency in cell viability assay (FIG. 1)” value in [3] is “strongly decreased potency”. Further, the “potency in cell viability assay (FIG. 3)” value in data set [4] is “strongly decreased potency”. Besides, the “potency in cell viability assay (FIG. 5)” value in data set [5] is recorded as “comparable potency”. Further, the “tumor shrinking activity (FIG. 2)” value in [6] is reported as “significantly decreased tumor shrinking activity”. Besides, the “tumor shrinking activity (FIG. 4)” value in data set [7] is on record as “significantly decreased tumor shrinking activity”. Further, the “tumor shrinking activity (FIG. 7)” value in data set [8] is recorded as “significantly decreased tumor shrinking activity”.

`CC[C@H](C)[C@@H]1NC(=O)CNC(=O)[C@@H]2Cc3c([nH]c4ccccc34)SCC(NC(=O)CNC1=O)C(=O)N[C@@H](CC(=O)NCc1ccc(NC(=O)[C@H](C)NC(=O)C(NC(=O)CCN3C(=O)C=CC3=O)C(C)C)cc1)C(=O)CN1CC(O)C[C@H]1C(=O)N[C@@H]([C@@H](C)[C@@H](O)CO)C(=O)N2` (stereo partly shown) [30.2115, reference compound]: the “potency in cell viability assay (FIG. 1)” value in data set [3] was “slightly decreased potency”. Further, in [4], the “potency in cell viability assay (FIG. 3)” value is reported as “strongly decreased potency”. Further, the “potency in cell viability assay (FIG. 5)” value in data set [5] was “comparable potency”. In addition, the “tumor shrinking activity (FIG. 2)” value in data set [6] is given as “significantly decreased tumor shrinking activity”. In addition, the “tumor shrinking activity (FIG. 4)” value in data set [7] is on record as “significantly decreased tumor shrinking activity”. The “tumor shrinking activity (FIG. 7)” value in [8] is on record as “significantly decreased tumor shrinking activity”. For the same compound, the “HNSTD DIG Cyno” value in data set [11] is less than 7.5 mg/kg.

Consider `CC[C@H](C)[C@@H]1NC(=O)CNC(=O)[C@@H]2Cc3c([nH]c4cc(O)ccc34)SCC(NC(=O)CNC1=O)C(=O)N[C@@H](CC(=O)NCc1ccc(NC(=O)[C@H](C)NC(=O)C(NC(=O)CCN3C(=O)C=CC3=O)C(C)C)cc1)C(=O)CN1CC(O)C[C@H]1C(=O)N[C@@H]([C@@H](C)[C@@H](O)CO)C(=O)N2` (stereo partly shown) [30.2347], for which, in data set [3], the “potency in cell viability assay (FIG. 1)” value is given as “comparable potency”. For the same compound, in data set [4], the “potency in cell viability assay (FIG. 3)” value is on record as “comparable potency”. Moreover, in [5], the “potency in cell viability assay (FIG. 5)” value is reported as “comparable potency”. Also, in data set [6], the “tumor shrinking activity (FIG. 2)” value is recorded as “strong tumor shrinking activity”. The “tumor shrinking activity (FIG. 4)” value in data set [7] is “strong tumor shrinking activity”. Also, in data set [8], the “Efficacy Raji sc” value is listed as “∘” and the “tumor shrinking activity (FIG. 7)” value is “strong tumor shrinking activity”. Also, in [11], the “HNSTD DIG Cyno” value is less than 5 mg/kg.

With `CC[C@H](C)[C@@H]1NC(=O)CNC(=O)[C@@H]2Cc3c([nH]c4cc(OCc5ccc(NC(=O)[C@H](C)NC(=O)[C@@H](NC(=O)CCN6C(=O)C=CC6=O)C(C)C)cc5)ccc34)SCC(NC(=O)CNC1=O)C(=O)N[C@@H](CC(N)=O)C(=O)CN1CC(O)C[C@H]1C(=O)N[C@@H]([C@@H](C)[C@@H](O)CO)C(=O)N2` (stereo partly shown) [30.2371], in data set [3], the “potency in cell viability assay (FIG. 1)” value is recorded as “comparable potency”. Moreover, the “potency in cell viability assay (FIG. 3)” value in data set [4] is recorded as “comparable potency”. Further, in data set [5], the “potency in cell viability assay (FIG. 5)” value is “comparable potency”. For the same compound, the “tumor shrinking activity (FIG. 2)” value in data set [6] is on record as “strong tumor shrinking activity”. Also, the “tumor shrinking activity (FIG. 4)” value in data set [7] is given as “strong tumor shrinking activity”. In data set [8], the “Efficacy Raji sc” value is recorded as “∘” and the “tumor shrinking activity (FIG. 7)” value is recorded as “strong tumor shrinking activity”. In data set [11], the “HNSTD DIG Cyno” value is reported as more than 2 mg/kg.

The values are drawn from US12544419B2, “Targeted amatoxin conjugate for the treatment of solid tumors” (Heidelberg Pharma Research GmbH, priority 2018, dated 2026).
